The subject of data set [1] is adult patients with NDD-CKD and anemia, not previously treated with an ESA. The data set is described as follows: Phase 3 ESA-untreated NDD-CKD (Correction) trial, vadadustat vs darbepoetin alfa. Particulars: Correction study. Type of data set: in vivo, human. How it is done:
(§1) Two global, Phase 3, randomized, open-label, active-controlled, sponsor-blind clinical trials were conducted to evaluate safety and efficacy of vadadustat (Compound 1) vs the ESA darbepoetin alfa in adult patients with NDD-CKD and anemia. Patients recruited into the ESA-untreated NDD-CKD trial (N=1761) had hemoglobin <10 g/dL and were not previously being treated with an ESA. Patients recruited into the ESA-treated NDD-CKD trial (N=1750) had hemoglobin ranges of 8-11 g/dL (US) or 9-12 g/dL (non-US) and were actively treated with an ESA for anemia associated with CKD. Trial periods in both trials included 1) correction/conversion (weeks 0-23); 2) maintenance (weeks 24-52); 3) long-term treatment (week 53 to end of treatment); and 4) safety follow-up (end-of-treatment to 4 weeks later). The primary safety endpoint was time to first adjudicated major adverse cardiovascular event, defined as all-cause mortality, non-fatal myocardial infarction or non-fatal stroke pooled across both trials. The primary efficacy endpoint in each trial was mean change in hemoglobin from baseline to primary evaluation period (weeks 24-36) comparing vadadustat vs darbepoetin alfa treatment arms. Demographics and baseline characteristics were similar among patients in both trials, and typical for a large proportion of the NDD-CKD population. These trials helped define the safety and efficacy of vadadustat, an oral hypoxia-inducible factor prolyl hydroxylase inhibitor for management of anemia associated with NDD-CKD.
(§2) Two randomized, Phase 3, open-label, active-controlled clinical trials were conducted to evaluate the safety and efficacy of oral vadadustat versus injectable darbepoetin alfa: Correction (previously ESA-untreated) and Conversion (previously ESA-treated). Target enrollment for each was approximately 1850 patients recruited at approximately 390 and 480 sites in North America, Latin America, Europe, and the Asia Pacific for the ESA-untreated NDD-CKD trial and the ESA-treated NDD-CKD trial, respectively.
(§3) Trial Populations. Each trial recruited adults (>18 years of age) with NDD-CKD (estimated glomerular filtration rate 60 mL/min/1.73 m^2). […] In addition to the hemoglobin entry criteria, all patients were required to have serum ferritin ≥100 ng/mL and transferrin saturation 20% at screening in order to be randomized. In the ESA-untreated NDD-CKD trial, ESA use was permitted during screening, as per standard of care; however, patients were excluded if they received any ESA within 8 weeks of randomization. In the ESA-treated NDD-CKD trial, patients were actively maintained on ESA therapy, with at least one dose received within 6 weeks before or during screening. […]

Data set [2] concerns subjects receiving hemodialysis, previously maintained on epoetin alfa. Particulars: human, in vivo.
Protocol: The primary endpoint was mean hemoglobin (Hb) change from pre-baseline average to midtrial (Weeks 7-8) and end-of trial (Weeks 15-16) and was analyzed using available data (no imputation).
Data set [3] concerns adult patients with NDD-CKD and anemia, actively treated with an ESA. Nature of the data set: Phase 3 ESA-treated NDD-CKD (Conversion) trial, vadadustat vs darbepoetin alfa. Type of data set: in vivo, human. To be noted: Conversion study. Here is the method:
as §1, §2, §3

Where [4] appears, read: weeks 24 to 36, non-inferiority margin −0.75 g/dL.

We go through one compound from patent US20230285374A1, “THERAPEUTIC METHODS USING VADADUSTAT” (Akebia Therapeutics, Inc., priority 2019, published 2023).

In the case of `O=C(O)CNC(=O)c1ncc(-c2cccc(Cl)c2)cc1O` [Compound 1, Vadadustat], the “mean (SD) Hb level” value in data set [1] (week 24 to week 36) is recorded as 10.39 (0.99) g/dL; in data set [1] (week 40 to week 52), 10.48 (1.05) g/dL; in data set [3] (week 24 to week 36), 10.77 (0.98) g/dL; in data set [3] (week 40 to week 52), 10.80 (1.04) g/dL. Besides, the “least square mean difference in Hb (vadadustat vs darbepoetin alfa)” value was 0.05 g/dL in data set [1] (setting [4]), 0.04 g/dL in data set [1] (weeks 40 to 52), -0.01 g/dL in data set [3] (setting [4]) and 0.00 g/dL in data set [3] (weeks 40 to 52). Besides, in data set [2], the “deaths during the study” value was “No deaths”.
